Measured values from EP3322687B1, “2-BENZYL-INDANONE COMPOUNDS AS ANTICANCER AGENT AND A PROCESS FOR PREPARATION THEREOF” (Council of Scientific and Industrial Research, priority 2015, dated 2017).

Legend:
[1] = test system: A549 (Lung); assay: Sulforhodamine B cytotoxicity assay; type: cell-based; settings: Homo sapiens, A549, 48 h, read-out: Human cancer cell lines IC50 A549 (Lung)
Procedure: (§1) The benzyl compounds were evaluated by Sulforhodamine B Assay as per reported method [Skehan etal., J. Natl. Cancer Inst.1990, 82, 1107]. The human cancer cell lines procured from National Cancer Institute, Frederick, U. S. A. were used in present study. Cells were grown in tissue culture flasks in complete growth medium (RPMI-1640 medium with 2 mM glutamine, pH 7.4 supplemented with 10% fetal bovine serum, 100 µg/ml streptomycin and 100 units/ml penicillin) in a carbon dioxide incubator (37°C, 5% CO2, 90% RH). The cells at subconfluent stage were harvested from the flask by treatment with trypsin (0.05% in PBS (pH 7.4) containing 0.02% EDTA). Cells with viability of more than 98%, as determined by trypan blue exclusion, were used for determination of cytotoxicity. The cell suspension required concentration of cells was prepared in complete growth medium. Stock solution of 2x10^-2 M of compounds were prepared in DMSO and further dilution was carried out complete growth medium containing 50µg/ml of gentamycin to obtained working test solution of required concentration. In vitro cytotoxicity against various human cancer cell lines was determined using 96-well cell culture plates. The 100µl of cell suspension was added to each well of the 96-well cell culture plates. The cells were allowed to grow in CO2 incubator (37°C, 5% CO2, 90% RH) for 24 hours. The test materials in complete growth medium (100 µl) were added after 24 hours incubation to the wells containing cell suspension. The plates were further incubated for 48 hours (37°C in an atmosphere of 5% CO2 and 90% relative humidity) in a carbon dioxide incubator after addition of test material and then the cell growth was stopped by gently layering trichloroacetic acid (50% TCA, 50 µl) on top of the medium in all the wells. The plates were incubated at 4°C for one hour to fix the cells attached to the bottom of the wells. The liquid of all the wells was gently pipetted out and discarded. The plates were washed five times with distilled water to remove TCA, growth medium low molecular weight metabolites, serum proteins etc. and air - dried. Cell growth was measured by staining with sulforhodamine B dye. The adsorbed dye was dissolved in Tris-HCl Buffer (100 µl/well, 0.01M, pH 10.4) and plates were gently stirred for 10 minutes on a mechanical stirrer. The optical density (OD) was recorded on ELISA reader at 540nm. Paclitaxel (Taxol), and 5-Fluorouracil were used as positive controls (Standard drugs).

[2] = test system: MCF-7 (Breast cancer); assay: Sulforhodamine B cytotoxicity assay; type: cell-based; settings: Homo sapiens, MCF7, 48 h, read-out: Human cancer cell lines IC50 MCF-7 (Breast cancer)
Procedure: as §1

[3] = In-vivo acute oral toxicity; parameters: species or system Swiss albino mice; settings: for ALP / Albumin / Bilirubin / Body weight / Cholesterol / Creatinine / Haemoglobin / RBC / SGOT / SGPT / Serum Protein / Triglycerides / WBC: 7th day, Mean±SE, n=6
Procedure: In view of potent anti-cancer activity of compound 2 in in-vitro model, acute and sub-acute oral toxicity of the same was carried out in Swiss albino mice for its further development into drug product. Experiment was conducted in accordance with the Organization for Economic Cooperation and Development (OECD) test guideline No 423 (1987).
For the acute oral toxicity study, 30 mice (15 male and 15 female) were taken and divided into […] comprising 3 male and 3 female mice in each group weighing between 20-25 g. The animals were maintained at 22±5°C with humidity control and also on an automatic dark and light cycle of 12 hours. The animals were fed with the standard mice feed and provided ad libitum drinking water. Mice of group 1 (Group 1) were kept as control and animals of groups 2, 3, 4 and 5 (Groups II, III, IV & V) were kept as experimental. The animals were acclimatized for 7 days in the experimental environment prior to the actual experimentation. The test compound 2 was solubilized in dimethyl sulphoxide and then suspended in double distilled water (DDW) and was given at 5, 50, 300 and 1000mg/kg body weight to animals of groups 2, 3, 4 and 5 (Groups II, III, IV & V) respectively once orally. Control animals received only vehicle.
The animals were checked for mortality and any signs of ill health at hourly interval on the day of administration of drug and there after a daily general case side clinical examination was carried out including changes in skin, mucous membrane, eyes, occurrence of secretion and excretion and also responses like lachrymation, piloerection respiratory patterns etc. Also changes in gait, posture and response to handling were also recorded. In addition to observational study, body weights were recorded and blood and serum samples were collected from all the animals on 7th day of the experiment in acute oral toxicity. The samples were analysed for total RBC, WBC, differential leucocytes count, haemoglobin percentage and biochemical parameters like ALP, SGPT, SGOT, total cholesterol, triglycerides, creatinine, bilirubin, serum protein, tissue protein, malonaldehyde and reduced GSH activity. The animals were then sacrificed and were necropsed for any gross pathological changes. Weights of vital organs like liver, heart, kidney etc. were recorded. Table 7. Effect of compound 2 as a single acute oral dose at 5, 50, 300 and 1000 mg/kg on body weight, haematological and serum biochemical parameters in Swiss albino mice (Mean±SE; n=6; a, P<0.001 compared to control, 5, 50, 300, 1000 mg/kg)

Which IC50 [1] does the source give for `COc1cc(C2c3c(cc(OC)c(OC)c3OC)C(=O)C2Cc2ccc3c(c2)OCO3)cc(OC)c1OC` (stereo not drawn) [Compound 2, 2-(3",4"-methylenedioxybenzyl)-3-(3',4',5'-trimethoxyphenyl)-4,5,6-trimethoxy-indan-1-one] here?
Its IC50 is 2 µM.

And the IC50 [2]?
The IC50 was 3 µM.

What about the “ALP change as compare to control groups” value ([3]; 1000 mg/kg body weight, single oral dose) of the same molecule?
Its value is “significant changes”.

And the differential leucocytes counts ([3]; single acute oral dose at 5, 50, 300 and 1000 mg/kg body weight, n=6, compared to control (Figure 2))?
Its differential leucocytes counts is “Non significant changes”.

And the “absolute and relative organ weight” value ([3]; single acute oral dose at 5, 50, 300 and 1000 mg/kg, n=6, compared to control (Figure 1))?
The value was “Non significant changes”.

And the “observational changes, morbidity and mortality” value ([3]; single acute oral dose, up to the dose level of 1000 mg/kg body weight)?
The value was “No observational changes, morbidity and mortality”.

And the ALP ([3]; single oral dose 5 mg/kg)?
Its ALP is 167.3±16.5 U/L.

And the Albumin ([3]; single oral dose 5 mg/kg)?
Its Albumin is 3.63 ± 0.28 g/dL.

And the Bilirubin ([3]; single oral dose 5 mg/kg)?
The Bilirubin was 0.14 ± 0.07 mg/dL.

What about the Body weight ([3]; single oral dose 5 mg/kg) of the same molecule?
Its Body weight is 23.97±0.64 gm.

And the Cholesterol ([3]; single oral dose 5 mg/kg)?
The Cholesterol was 104.0 ± 6.7 mg/dL.

And the Creatinine ([3]; single oral dose 5 mg/kg)?
The Creatinine was 0.56 ± 0.10 mg/dL.

What about the Haemoglobin ([3]; single oral dose 5 mg/kg) of the same molecule?
Its Haemoglobin is 13.55±0.60 gm/dL.

What about the RBC ([3]; single oral dose 5 mg/kg) of the same molecule?
The RBC was 5.93±0.39 million/mm3.

What about the SGOT ([3]; single oral dose 5 mg/kg) of the same molecule?
Its SGOT is 12.24±1.18 U/L.

What about the SGPT ([3]; single oral dose 5 mg/kg) of the same molecule?
The SGPT was 15.74±1.03 U/L.

And the “Serum Protein” value ([3]; single oral dose 5 mg/kg)?
The value was 1.07 ± 0.06 mg/mL.

And the Triglycerides ([3]; single oral dose 5 mg/kg)?
The Triglycerides was 98.74 ± 3.11 mg/dL.

What about the WBC ([3]; single oral dose 5 mg/kg) of the same molecule?
Its WBC is 7.95±0.64 1000*/mm3.

What about the ALP ([3]; single oral dose 50 mg/kg) of the same molecule?
Its ALP is 191.6±27.6 U/L.

And the Bilirubin ([3]; single oral dose 50 mg/kg)?
Its Bilirubin is 0.09 ± 0.01 mg/dL.

And the Body weight ([3]; single oral dose 50 mg/kg)?
The Body weight was 24.29±0.95 gm.

What about the Cholesterol ([3]; single oral dose 50 mg/kg) of the same molecule?
The Cholesterol was 120.3 ± 10.4 mg/dL.

And the Creatinine ([3]; single oral dose 50 mg/kg)?
The Creatinine was 0.69 ± 0.08 mg/dL.

And the Haemoglobin ([3]; single oral dose 50 mg/kg)?
The Haemoglobin was 13.06±0.82 gm/dL.

What about the RBC ([3]; single oral dose 50 mg/kg) of the same molecule?
Its RBC is 5.83±0.17 million/mm3.

What about the SGOT ([3]; single oral dose 50 mg/kg) of the same molecule?
Its SGOT is 25.76±5.40 U/L.

What about the SGPT ([3]; single oral dose 50 mg/kg) of the same molecule?
The SGPT was 17.92±1.69 U/L.

What about the “Serum Protein” value ([3]; single oral dose 50 mg/kg) of the same molecule?
The value was 1.13 ± 0.07 mg/mL.

And the Triglycerides ([3]; single oral dose 50 mg/kg)?
The Triglycerides was 74.95 ± 5.79 mg/dL.

And the WBC ([3]; single oral dose 50 mg/kg)?
Its WBC is 7.99±0.55 1000*/mm3.

And the ALP ([3]; single oral dose 300 mg/kg)?
The ALP was 224.0±6.70 U/L.

What about the Albumin ([3]; single oral dose 300 mg/kg) of the same molecule?
The Albumin was 3.63 ± 0.28 g/dL.

What about the Body weight ([3]; single oral dose 300 mg/kg) of the same molecule?
The Body weight was 23.83±0.42 gm.

What about the Cholesterol ([3]; single oral dose 300 mg/kg) of the same molecule?
Its Cholesterol is 116.5 ± 15.6 mg/dL.

What about the Creatinine ([3]; single oral dose 300 mg/kg) of the same molecule?
The Creatinine was 0.76 ± 0.03 mg/dL.

What about the Haemoglobin ([3]; single oral dose 300 mg/kg) of the same molecule?
The Haemoglobin was 10.90±1.11 gm/dL.

And the RBC ([3]; single oral dose 300 mg/kg)?
Its RBC is 6.03±0.11 million/mm3.

What about the SGOT ([3]; single oral dose 300 mg/kg) of the same molecule?
The SGOT was 18.71±3.16 U/L.

What about the SGPT ([3]; single oral dose 300 mg/kg) of the same molecule?
Its SGPT is 18.20±1.41 U/L.

What about the “Serum Protein” value ([3]; single oral dose 300 mg/kg) of the same molecule?
Its value is 1.09 ± 0.06 mg/mL.

What about the Triglycerides ([3]; single oral dose 300 mg/kg) of the same molecule?
Its Triglycerides is 104.94 ± 10.39 mg/dL.

What about the WBC ([3]; single oral dose 300 mg/kg) of the same molecule?
The WBC was 8.13±0.64 1000*/mm3.

What about the ALP ([3]; single oral dose 1000 mg/kg) of the same molecule?
Its ALP is 234.3±44.5 U/L.

What about the Albumin ([3]; single oral dose 1000 mg/kg) of the same molecule?
The Albumin was 3.26 ± 0.30 g/dL.

What about the Bilirubin ([3]; single oral dose 1000 mg/kg) of the same molecule?
Its Bilirubin is 0.12 ± 0.04 mg/dL.

And the Body weight ([3]; single oral dose 1000 mg/kg)?
Its Body weight is 23.41±0.16 gm.

And the Creatinine ([3]; single oral dose 1000 mg/kg)?
The Creatinine was 0.76 ± 0.09 mg/dL.

What about the Haemoglobin ([3]; single oral dose 1000 mg/kg) of the same molecule?
The Haemoglobin was 12.29±0.53 gm/dL.

And the RBC ([3]; single oral dose 1000 mg/kg)?
Its RBC is 6.10±0.27 million/mm3.

And the SGOT ([3]; single oral dose 1000 mg/kg)?
The SGOT was 35.49±6.57 U/L.

What about the SGPT ([3]; single oral dose 1000 mg/kg) of the same molecule?
The SGPT was 11.97±1.67 U/L.

And the “Serum Protein” value ([3]; single oral dose 1000 mg/kg)?
The value was 1.42 ± 0.16 mg/mL.

And the Triglycerides ([3]; single oral dose 1000 mg/kg)?
The Triglycerides was 87.28 ± 4.39 mg/dL.

And the WBC ([3]; single oral dose 1000 mg/kg)?
The WBC was 8.57±0.76 1000*/mm3.

And the “toxicity in in-vivo acute oral toxicity” value ([3]; up to 300mg/kg)?
Its value is “no toxicity”.

And the tolerability ([3]; up to the dose level of 1000 mg/kg body weight as a single acute oral dose)?
The tolerability was “well tolerated”.
